Here are results for 1 compound from patent US20260209200A1, “SALTS OF A DIHYDROOROTATE DEHYDROGENASE (DHOD) INHIBITOR” (priority 2022, published 2026).

By bioavailability is commonly meant dose-corrected exposure relative to a reference, in per cent. The low end stands for little systemic uptake, the high end for much systemic uptake. By solubility is commonly meant the concentration that dissolves in the medium under given conditions. A higher solubility goes with much dissolved substance.

Data set [1] can be described thus: in vivo. The settings on record: male, beagle, dog. The method, then:
(§1) Suspensions were stirred continuously prior to dose.
A total of 6 male beagle dogs were used (n=3). 6 male dogs assigned to the study were divided into 2 periods with 6 dogs per period and two dosing cycles separated by a 7-day washout period. The diet was provided ad libitum throughout the in-life portion of the study, except for the fasting prior to dosing through 4 hours post dose. Drinking water was available daily ad libitum to all animals. Formulated PP-001 salts were administered to male beagle dogs by oral administration at 4 mg/kg with dosed volume at 2 mL/kg.
Plasma samples were collected via the jugular vein cannulation into EDTA-K3 tubes at 0.25, 0.5, 1, 2, 4, 8, and 24 hours post-dose administration. For analytical batch of single oral administration, plasma concentrations of salts of PP-001 were determined using LC-MS/MS with a lower limit of quantitation of 10 ng/mL.
(§2) The pharmacokinetic parameters of PP-001 salts were determined by non-compartmental analysis using WinNonlin Version 8.0 (Pharsight, Mountain View, CA). The area under the curve from the time of dosing to the last measurable concentration, AUC0-t, was calculated by the linear trapezoidal rule. The area under the concentration-time curve extrapolated to infinity, AUCinf, was calculated using a regression of the natural logarithm of the concentration values versus sampling time of the terminal slope (Lambda Z, k). This value is also used to calculate half-life (T1/2) as follows:
(§3) The bioavailability was calculated as follows:
(§4) [formula] • wherein PO is an oral administration and IV is an intravenous injection.

Data set [2] is described as follows: Solubility of PP-001 free acid in supernatant of 10 mg/mL formulation in FaSSIF. In kind it is physicochemical. The settings on record: supernatant of 10 mg/mL formulation at 25° C. in FaSSIF after 120 min.
Data set [3] in a line: in vivo. Particulars: male, SD, rat, in vivo, po. The method, then:
as §1
A total of 27 male SD rats were used (n=3). 27 male SD rats assigned to the study were divided into 9 groups and a single type of formulated PP-001 salt was orally administered to each group of rats at dose level of 4 mg/kg (2 mL/kg dose volume). The diet was provided ad libitum throughout the in-life portion of the study, except for the fasting prior to dosing through 4 hours post dose. Drinking water was available daily ad libitum to all animals.
Plasma samples were collected via the jugular vein cannulation into EDTA-K3 tubes at 0.25, 0.5, 1, 2, 4, 8, and 24 hours post-dose administration. For analytical batch of single oral administration, plasma concentrations of salts of PP-001 were determined using LC-MS/MS with a lower limit of quantitation of 1 ng/mL.
as §2, §3, §4

Converted amounts (≈) assume the structure as drawn.

In the case of `O=C(Nc1c(F)c(F)c(-c2cccc(OC(F)(F)F)c2)c(F)c1F)c1ccsc1C(=O)O` [PP-001 free acid, 3-(2,3,5,6-tetrafluoro-3′-trifluoromethoxy-biphenyl-4-ylcarbamoyl)-thiophene-2-carboxylic acid], the “Increase in oral BA vs free acid in dogs” value in data set [1] was 1. Also, the bioavailability in data set [1] (po, 4 mg/kg) is 23%; in data set [3] (4 mg/kg), 7.8%. This compound also gave a solubility at 120 min in data set [2] of 1200 µg/mL (≈ 2500 µM). Moreover, the “Increase in oral BA vs free acid in rats” value in data set [3] is given as 1.
